The source of these data is ChEMBL document CHEMBL4665676, “Matrix Metalloproteinases as New Targets in Alzheimer's Disease: Opportunities and Challenges” (J Med Chem, 2020).

Molecules are shown by their SMILES. Peptide text beside a SMILES is read from it.

In assay [1] the target is T1, Matrix metalloproteinase-14 (Homo sapiens, UniProt P50281). Briefly: Inhibition of MT1-MMP catalytic domain (unknown origin) expressed in Escherichia coli using 7-methoxycoumarin-4-yl)acetyl-Pro-Leu-Gly-Leu-(3-[2,4-dinitrophenyl]-L-2,3-diaminopropionyl)-Ala-Arg-NH2 as substrate incubated for 30 mins by fluorescence method.
Assay [2] has as its target Macrophage metalloelastase (Homo sapiens, UniProt P39900). Description: Inhibition of recombinant human MMP12 using Mca-Pro-Leu-Gly-Leu-Dpa-Ala-Arg-NH2 as substrate by […] method.
Assay [3] concerns the target T2, Matrix metalloproteinase-9 (Homo sapiens, UniProt P14780). Briefly: Inhibition of human MMP9 measured at 5 mins interval for 1 hr by fluorescence method.
Assay [4] has as its target T3, 72 kDa type IV collagenase (Homo sapiens, UniProt P08253). Briefly: Inhibition of human MMP2 measured at 5 mins interval for 1 hr by fluorescence method.
Assay [5] addresses T1, Matrix metalloproteinase-14. Briefly: Inhibition of human MT1-MMP using 3163v as substrate preincubated for 15 mins followed by substrate addition and measured after 40 mins by fluorometric method.
Assay [6] deals with T3, 72 kDa type IV collagenase. Briefly: Inhibition of MMP2 (unknown origin) using 3163v as substrate preincubated for 15 mins followed by substrate addition and measured after 40 mins by fluorometric method.
The target in a further assay is T4, Matrilysin (Homo sapiens, UniProt P09237).
T4 sequence (P09237 whole entry): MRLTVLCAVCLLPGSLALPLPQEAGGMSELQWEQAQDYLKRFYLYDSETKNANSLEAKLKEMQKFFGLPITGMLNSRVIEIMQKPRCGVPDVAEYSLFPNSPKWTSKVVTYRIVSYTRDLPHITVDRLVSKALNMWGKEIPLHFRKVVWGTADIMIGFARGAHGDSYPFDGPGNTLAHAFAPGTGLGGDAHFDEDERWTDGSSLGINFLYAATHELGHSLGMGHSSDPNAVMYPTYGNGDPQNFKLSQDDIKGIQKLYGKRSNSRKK
Briefly: Inhibition of human MMP7 using 3163v as substrate preincubated for 15 mins followed by substrate addition and measured after 40 mins by fluorometric method.

For another assay, the target named is Stromelysin-1 (Homo sapiens, UniProt P08254). Description: Inhibition of MMP3 (unknown origin) using 3168v as substrate preincubated for 15 mins followed by substrate addition and measured after 40 mins by fluorometric method.
Chain of Stromelysin-1 (P08254 whole entry): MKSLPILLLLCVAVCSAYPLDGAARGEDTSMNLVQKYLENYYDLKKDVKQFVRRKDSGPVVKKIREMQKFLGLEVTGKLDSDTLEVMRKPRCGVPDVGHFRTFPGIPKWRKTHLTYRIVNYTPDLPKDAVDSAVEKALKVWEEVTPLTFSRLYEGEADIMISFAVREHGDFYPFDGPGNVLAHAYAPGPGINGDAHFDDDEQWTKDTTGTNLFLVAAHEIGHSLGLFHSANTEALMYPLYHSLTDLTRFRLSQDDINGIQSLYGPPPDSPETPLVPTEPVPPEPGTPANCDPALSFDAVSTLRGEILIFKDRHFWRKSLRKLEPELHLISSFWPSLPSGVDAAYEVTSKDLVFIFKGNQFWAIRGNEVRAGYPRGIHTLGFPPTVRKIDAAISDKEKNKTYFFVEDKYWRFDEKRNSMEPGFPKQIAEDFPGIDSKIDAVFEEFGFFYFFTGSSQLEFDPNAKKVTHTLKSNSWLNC
Assay [7] concerns the target T2, Matrix metalloproteinase-9. Description: Inhibition of human MMP9 using 3163v as substrate preincubated for 15 mins followed by substrate addition and measured after 40 mins by fluorometric method.

T3 sequence (P08253 whole entry): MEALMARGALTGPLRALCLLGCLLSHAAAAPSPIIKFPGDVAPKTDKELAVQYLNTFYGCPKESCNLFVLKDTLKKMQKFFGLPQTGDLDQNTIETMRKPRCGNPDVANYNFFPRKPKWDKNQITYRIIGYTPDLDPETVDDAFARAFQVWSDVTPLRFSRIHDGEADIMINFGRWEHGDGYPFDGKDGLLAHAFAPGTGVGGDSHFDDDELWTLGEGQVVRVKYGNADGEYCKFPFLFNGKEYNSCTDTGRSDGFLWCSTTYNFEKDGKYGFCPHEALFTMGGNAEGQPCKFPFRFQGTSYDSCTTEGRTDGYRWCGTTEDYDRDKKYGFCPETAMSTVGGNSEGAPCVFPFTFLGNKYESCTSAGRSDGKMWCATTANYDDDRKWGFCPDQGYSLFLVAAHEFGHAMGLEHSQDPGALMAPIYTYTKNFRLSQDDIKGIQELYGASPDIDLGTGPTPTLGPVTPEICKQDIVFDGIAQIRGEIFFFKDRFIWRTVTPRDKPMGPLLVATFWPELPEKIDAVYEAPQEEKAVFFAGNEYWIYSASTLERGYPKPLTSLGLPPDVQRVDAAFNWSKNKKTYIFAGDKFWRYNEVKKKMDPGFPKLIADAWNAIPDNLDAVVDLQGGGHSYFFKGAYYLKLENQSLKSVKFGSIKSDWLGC
T2 sequence (P14780 whole entry): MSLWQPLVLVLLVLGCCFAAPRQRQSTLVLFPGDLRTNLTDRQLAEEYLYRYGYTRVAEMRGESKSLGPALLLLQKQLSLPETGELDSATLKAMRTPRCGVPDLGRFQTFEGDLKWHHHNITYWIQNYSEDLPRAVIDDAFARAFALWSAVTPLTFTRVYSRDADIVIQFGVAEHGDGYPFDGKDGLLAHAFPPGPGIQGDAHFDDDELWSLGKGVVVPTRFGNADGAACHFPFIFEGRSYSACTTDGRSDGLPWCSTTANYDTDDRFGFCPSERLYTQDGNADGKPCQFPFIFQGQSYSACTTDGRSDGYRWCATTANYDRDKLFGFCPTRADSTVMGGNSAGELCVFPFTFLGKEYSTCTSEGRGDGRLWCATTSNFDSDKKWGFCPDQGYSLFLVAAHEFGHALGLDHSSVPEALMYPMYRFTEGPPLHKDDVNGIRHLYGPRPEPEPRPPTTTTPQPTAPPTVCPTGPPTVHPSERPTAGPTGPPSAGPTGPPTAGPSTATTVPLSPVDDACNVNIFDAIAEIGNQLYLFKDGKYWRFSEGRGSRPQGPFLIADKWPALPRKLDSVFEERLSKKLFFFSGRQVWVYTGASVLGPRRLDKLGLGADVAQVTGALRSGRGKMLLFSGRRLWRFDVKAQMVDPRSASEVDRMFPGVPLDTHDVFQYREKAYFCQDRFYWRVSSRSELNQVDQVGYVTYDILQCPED
Chain of Macrophage metalloelastase (P39900 whole entry): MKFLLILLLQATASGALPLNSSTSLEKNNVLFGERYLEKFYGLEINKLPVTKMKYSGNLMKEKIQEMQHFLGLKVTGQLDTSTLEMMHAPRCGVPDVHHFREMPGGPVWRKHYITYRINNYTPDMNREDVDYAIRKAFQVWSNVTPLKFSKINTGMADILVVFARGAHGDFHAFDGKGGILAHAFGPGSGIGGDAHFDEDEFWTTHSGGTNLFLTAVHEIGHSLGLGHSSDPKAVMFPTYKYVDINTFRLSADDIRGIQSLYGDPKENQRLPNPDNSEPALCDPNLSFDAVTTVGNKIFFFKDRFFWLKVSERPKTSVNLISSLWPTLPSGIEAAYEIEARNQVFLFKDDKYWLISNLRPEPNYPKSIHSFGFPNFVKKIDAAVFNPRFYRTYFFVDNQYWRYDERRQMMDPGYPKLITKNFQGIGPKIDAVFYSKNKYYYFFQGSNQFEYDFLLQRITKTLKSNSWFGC

One may read the IC50 as the concentration that gives 50% inhibition. For `CCCC(C)NC(=O)c1ccc(Cl)c(Cl)c1` (centres undefined), the IC50 in [1] is > 100000 nM.
Regarding `NC(=O)[C@H](CCC(=O)O)NC(=O)c1ccc(-c2cc(-c3ccccc3)cs2)cc1`, in [2], the IC50 came out at 2.5 nM.
`CCCCCC(=O)N1CC(F)(F)C[C@@H]1C(=O)N(C)[C@H](C(=O)N[C@@H](CCNC(=O)c1ccccc1)C(=O)NO)[C@@H](C)CC`: the IC50 in assay [3] was determined as 310 nM; in [4], 656 nM.
As to `CC[C@H](C)[C@H](N)C(=O)N[C@@H](CO)C(=O)N[C@@H](Cc1ccc(O)cc1)C(=O)NCC(=O)N[C@@H](CC(N)=O)C(=O)N[C@@H](CC(=O)O)C(=O)N[C@@H](C)C(=O)N[C@@H](CC(C)C)C(=O)N[C@@H](CCSC)C(=O)N1CCC[C@H]1C(=O)O` (H-ISYGNDALMP-OH), the half-maximal inhibitory concentration (IC50) was 2000 nM in [5]; 30 nM in assay [6]; > 10000 nM at Matrilysin; > 10000 nM on Stromelysin-1; > 10000 nM in assay [7].
